Measured values published in PubChem BioAssay AID330 (DTP/NCI, 2004).
Where “and” joins values, the source holds several entries; their conditions need not be identical. Equal entries are not always repeated. Toxic doses and inconclusive results are not listed.

System: P388 leukemia ip, CD2F1 mice, survival T/C
Test: NCI In Vivo Anticancer Drug Screen. Data for tumor model P388 Leukemia (intraperitoneal) in CD2F1 (CDF1) mice
Conditions: endpoint: median survival time, higher = longer survival
Summary of the method: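 Mice carrying the transplanted tumor received test compound or vehicle. Survival was recorded in each group, and the value is the treated-group measurement divided by that of the vehicle-treated control group.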

[1] = dose: 50.0 mg/kg/injection, schedule: Q01DX009 (ip), vehicle: saline with Tween-80
[2] = dose: 100.0 mg/kg/injection, schedule: Q01DX009 (ip), vehicle: saline with Tween-80
[3] = dose: 200.0 mg/kg/injection, schedule: Q01DX009 (ip), vehicle: saline with Tween-80
[4] = dose: 50.0 mg/kg/injection, schedule: Q01DX009 (ip), vehicle: saline
[5] = dose: 100.0 mg/kg/injection, schedule: Q01DX009 (ip), vehicle: saline
[6] = dose: 50.0 mg/kg/injection, schedule: Q01DX005 (ip), vehicle: saline with Tween-80
[7] = dose: 100.0 mg/kg/injection, schedule: Q01DX005 (ip), vehicle: saline with Tween-80
[8] = dose: 200.0 mg/kg/injection, schedule: Q01DX005 (ip), vehicle: saline with Tween-80
[9] = dose: 100.0 mg/kg/injection, schedule: Q04DX003 (ip), vehicle: saline with Tween-80

In the case of CCOC(=O)COc1cc2c(cc1C(C)c1ccc(OC)c(OC)c1)OCO2 (centres undefined), the T/C (dose: 50.0 mg/kg/injection, schedule: Q01DX005 (ip), vehicle: distilled water + Tween-80) is reported as 90 % of control, the T/C (dose: 100.0 mg/kg/injection, schedule: Q01DX005 (ip), vehicle: distilled water + Tween-80) is reported as 91 % of control and the T/C (dose: 200.0 mg/kg/injection, schedule: Q01DX005 (ip), vehicle: distilled water + Tween-80) is reported as 86 % of control.

CC1=C(C(N)=O)C(c2ccccc2)NC(=S)N1 (centres undefined) was tested, and the T/C (dose: 3.12 mg/kg/injection, schedule: Q01DX005 (ip), vehicle: Klucel (hydroxypropylcellulose) (HPC)) was 101 % of control, the T/C (dose: 6.25 mg/kg/injection, schedule: Q01DX005 (ip), vehicle: Klucel (hydroxypropylcellulose) (HPC)) was 95 % of control and the T/C (dose: 12.5 mg/kg/injection, schedule: Q01DX005 (ip), vehicle: Klucel (hydroxypropylcellulose) (HPC)) was 100 % of control. For the same compound, the T/C (dose: 25.0 mg/kg/injection, schedule: Q01DX005 (ip), vehicle: Klucel (hydroxypropylcellulose) (HPC)) was 100 % of control and 101 % of control (2×).

With N=C(N)c1ccc(-c2ccc(-c3ccc(C(=N)N)cc3)s2)cc1 the T/C (dose: 12.5 mg/kg/injection, schedule: Q04DX003 (ip), vehicle: suspension in saline) was 106 % of control, the T/C (dose: 25.0 mg/kg/injection, schedule: Q04DX003 (ip), vehicle: suspension in saline) was 120 % of control and the T/C (dose: 100.0 mg/kg/injection, schedule: Q04DX003 (ip), vehicle: suspension in saline) was 169 % of control.

For CCN(CC)Cc1ccc2ccccc2c1O, the T/C [1] was 103 % of control, the T/C [2] was 89 % of control and the T/C [3] was 92 % of control.

With CC1=C2CC(C)(C)/C=C\C(=O)/C(C)=C\C3=CC(C)(O)CC3(O2)C1=O (centres undefined) the T/C (dose: 0.92 mg/kg/injection, schedule: Q01DX009 (ip), vehicle: saline with Tween-80) was 102 % of control, the T/C (dose: 1.25 mg/kg/injection, schedule: Q01DX009 (ip), vehicle: Klucel (hydroxypropylcellulose) (HPC)) was 109 % of control and the T/C (dose: 1.84 mg/kg/injection, schedule: Q01DX009 (ip), vehicle: saline with Tween-80) was 98 % of control. For the same compound, the T/C (dose: 2.5 mg/kg/injection, schedule: Q01DX009 (ip), vehicle: Klucel (hydroxypropylcellulose) (HPC)) was 120 % of control, the T/C (dose: 3.67 mg/kg/injection, schedule: Q01DX009 (ip), vehicle: saline with Tween-80) was 116 % of control and the T/C (dose: 5.0 mg/kg/injection, schedule: Q01DX009 (ip), vehicle: Klucel (hydroxypropylcellulose) (HPC)) was 118 % of control. The T/C (dose: 7.34 mg/kg/injection, schedule: Q01DX009 (ip), vehicle: saline with Tween-80) was 118 % of control and the T/C (dose: 10.0 mg/kg/injection, schedule: Q01DX009 (ip), vehicle: Klucel (hydroxypropylcellulose) (HPC)) was 120 % of control.

CC[As](CC)SCC1OC(OC(C)=O)C(OC(C)=O)C(OC(C)=O)C1OC(C)=O (centres undefined) was tested, and the T/C (dose: 50.0 mg/kg/injection, schedule: Q01DX009 (ip), vehicle: saline + alcohol) was 99 % of control, the T/C [4] was 110 % of control and the T/C (dose: 100.0 mg/kg/injection, schedule: Q01DX009 (ip), vehicle: saline + alcohol) was 100 % of control. For the same compound, the T/C [5] was 113 % of control and the T/C (dose: 200.0 mg/kg/injection, schedule: Q01DX009 (ip), vehicle: saline + alcohol) was 109 % of control.

Cc1c(C)c(C)c(S(=O)(=O)OCCCl)c(C)c1C was tested, and the T/C [6] was 98 % of control, the T/C [7] was 92 % of control and the T/C [8] was 95 % of control.

With CCN(CC)C(C)C(=O)c1ccc2cc(Br)c3ccccc3c2c1 (centres undefined) the T/C (dose: 50.0 mg/kg/injection, schedule: Q01DX005 (ip), vehicle: saline) was 109 % of control and the T/C (dose: 100.0 mg/kg/injection, schedule: Q01DX005 (ip), vehicle: saline) was 113 % of control.

In the case of COC(=O)C1=CO[C@@H](OC2OC(CO)C(O)C(O)C2O)[C@@H]2[C@@H](C)[C@@H](O)C[C@H]12 (some centres undefined), the T/C (dose: 1.13 mg/kg/injection, schedule: Q01DX005 (ip), vehicle: water) is reported as 100 % of control, the T/C (dose: 2.25 mg/kg/injection, schedule: Q01DX005 (ip), vehicle: water) is reported as 99 % of control and the T/C (dose: 4.5 mg/kg/injection, schedule: Q01DX005 (ip), vehicle: water) is reported as 93 % of control. For the same compound, the T/C (dose: 9.0 mg/kg/injection, schedule: Q01DX005 (ip), vehicle: water) was 95 % of control.

For COC1CCC(NC(=O)N(N=O)C2CCC(OC)CC2)CC1 (centres undefined), the T/C (dose: 25.0 mg/kg/injection, schedule: Q01DX001 (ip), vehicle: distilled water + Tween-80) was 109 % of control, the T/C (dose: 50.0 mg/kg/injection, schedule: Q01DX001 (ip), vehicle: distilled water + Tween-80) was 100 % of control and the T/C (dose: 100.0 mg/kg/injection, schedule: Q01DX001 (ip), vehicle: distilled water + Tween-80) was 100 % of control. The T/C (dose: 200.0 mg/kg/injection, schedule: Q01DX001 (ip), vehicle: distilled water + Tween-80) was 105 % of control.

For O=C(CCl)N1CCN(C(c2ccccc2)c2ccccc2)CC1, the T/C (dose: 60.0 mg/kg/injection, schedule: Q01DX005 (ip), vehicle: saline with Tween-80) was 99 % of control, the T/C (dose: 120.0 mg/kg/injection, schedule: Q01DX005 (ip), vehicle: saline with Tween-80) was 100 % of control and the T/C (dose: 240.0 mg/kg/injection, schedule: Q01DX005 (ip), vehicle: saline with Tween-80) was 99 % of control.

COC(=O)c1c(C(N)=O)c(C)n(NC(=O)Nc2ccccc2)c1C was tested, and the T/C [6] was 96 % of control, the T/C [7] was 89 % of control and the T/C [8] was 94 % of control.

O=C(c1ccccc1)N1c2ccccc2N(C(=O)c2ccccc2)C1c1nc2ccccc2n1C(=O)c1ccccc1 was tested, and the T/C [1] was 109 % of control, the T/C [2] was 100 % of control and the T/C [3] was 102 % of control.

In the case of [O-]/[N+](=C\c1c(Cl)cccc1Cl)CC1(O)CCCCC1, the T/C [1] is reported as 96 % of control, the T/C [2] is reported as 90 % of control and the T/C [3] is reported as 99 % of control.

CCOC(=O)CSc1nnc(-c2cc(OC)c(OC)c(OC)c2)o1 was tested, and the T/C (dose: 100.0 mg/kg/injection, schedule: Q01DX001 (ip), vehicle: Klucel (hydroxypropylcellulose) (HPC)) was 98 % of control, the T/C (dose: 200.0 mg/kg/injection, schedule: Q01DX001 (ip), vehicle: Klucel (hydroxypropylcellulose) (HPC)) was 104 % of control and the T/C (dose: 400.0 mg/kg/injection, schedule: Q01DX001 (ip), vehicle: Klucel (hydroxypropylcellulose) (HPC)) was 92 % of control.

Cc1cc(O)cc(O)c1C(=O)OC1CC2(C)C3CC(C)(C)CC3C=C(C=O)C12O (centres undefined) was tested, and the T/C (dose: 1.5 mg/kg/injection, schedule: Q01DX005 (ip), vehicle: Klucel + Tween-80) was 107 % of control, the T/C (dose: 3.0 mg/kg/injection, schedule: Q01DX005 (ip), vehicle: Klucel + Tween-80) was 97 % of control and the T/C (dose: 6.0 mg/kg/injection, schedule: Q01DX005 (ip), vehicle: Klucel + Tween-80) was 103 % of control. For the same compound, the T/C (dose: 12.0 mg/kg/injection, schedule: Q01DX005 (ip), vehicle: Klucel + Tween-80) was 99 % of control.

With O=C(CC(O)(C(F)(F)F)C(F)(F)F)c1cccs1 the T/C (dose: 50.0 mg/kg/injection, schedule: Q04DX003 (ip), vehicle: saline with Tween-80) was 116 % of control and the T/C [9] was 100 % of control.

For N#CSCc1ccc(Cl)cc1Cl, the T/C [1] was 109 % of control, the T/C [2] was 113 % of control and the T/C [3] was 113 % of control.

In the case of COC1/C=C/OC2(C)Oc3c(C)c(O)c4c(O)c(c(C5SCCS5)c(O)c4c3C2=O)NC(=O)/C(C)=C\C=C\C(C)C(O)C(C)C(O)C(C)C(O)C1C (centres undefined), the T/C [1] is reported as 97 % of control, the T/C [2] is reported as 102 % of control and the T/C [3] is reported as 96 % of control.

In the case of NCCC(=O)CN, the T/C (dose: 100.0 mg/kg/injection, schedule: Q04DX003 (ip), vehicle: saline) is reported as 104 % of control, the T/C (dose: 200.0 mg/kg/injection, schedule: Q04DX003 (ip), vehicle: saline) is reported as 109 % of control and the T/C (dose: 400.0 mg/kg/injection, schedule: Q04DX003 (ip), vehicle: saline) is reported as 104 % of control.

With CC(=O)OCC1OC(Nc2[nH]c(=O)n(C)c(=O)c2N=O)C(OC(C)=O)C(OC(C)=O)C1OC(C)=O (centres undefined) the T/C (dose: 100.0 mg/kg/injection, schedule: Q04DX002 (ip), vehicle: saline with Tween-80) was 104 % of control, the T/C (dose: 200.0 mg/kg/injection, schedule: Q04DX002 (ip), vehicle: saline with Tween-80) was 103 % of control and the T/C (dose: 400.0 mg/kg/injection, schedule: Q04DX002 (ip), vehicle: saline with Tween-80) was 102 % of control.

For CC1CC(N=Cc2ccc3c(c2)OCO3)CC(C)(C)C1 (centres undefined), the T/C [6] was 103 % of control, the T/C [7] was 96 % of control and the T/C [8] was 97 % of control.

With CC(C)=CCCC(C)=C(C#N)C#N the T/C [9] was 100 % of control.

In the case of NCC12CC3CC(CC(C3)C1)C2, the T/C (dose: 12.5 mg/kg/injection, schedule: Q01DX009 (ip), vehicle: saline with Tween-80) is reported as 103 % of control, the T/C (dose: 25.0 mg/kg/injection, schedule: Q01DX009 (ip), vehicle: saline with Tween-80) is reported as 102 % of control and the T/C [1] is reported as 100 % of control and 102 % of control.

CCOC(=O)C(CC)CO (centres undefined) was tested, and the T/C [4] was 101 % of control, the T/C [5] was 100 % of control and the T/C (dose: 200.0 mg/kg/injection, schedule: Q01DX009 (ip), vehicle: saline) was 101 % of control.

In the case of Cc1ccccc1N=Cc1ccc(N(C)C)cc1, the T/C [2] is reported as 91 % of control and the T/C [3] is reported as 87 % of control.
